Results as given in PMC5365662, “A Short Double-Stapled Peptide Inhibits Respiratory Syncytial Virus Entry and Spreading” (Antimicrobial Agents and Chemotherapy, 2017).
Bridge positions count the residues as written; N and C are the ends. Square brackets hold non-standard residues; d marks the D form. Peptide text beside a SMILES is read from it. R8 = C=CCCCCCC[C@@](C)(N)C(=O)O; S5 = C=CCCC[C@](C)(N)C(=O)O

Key:
[1] = biological target: 5HB, a recombinant protein containing 3 HR1 domains covalently attached to 2 HR2 domains; conditions: competition with fluorescently labeled T108 probe (2 nM), 5HB 50 nM, 10 min preincubation + 30 min room temperature, duplicates
Excerpt: The RSV HR2 region (residues 476 to 524) is a 49-amino-acid sequence that has been extensively characterized (Fig. 1). HR2 is a largely unstructured peptide in aqueous solution folding into an α-helix upon binding to trimeric HR1 coiled coils ([20]). […] We reduced HR2 (aa 483 to 516) into three short overlapping subdomains (subdomains 1 to 3) (Fig. 1). These peptides were scanned for various stapling combinations. […] Far-UV circular dichroism (CD) spectropolarimetry was used to investigate the effect of stapling on the α-helical content of the peptides. […] To assess the propensity of the stapled peptides to hinder the formation of the postfusion six-helix bundle required for viral cell entry, we used a 5-helix bundle (5HB) biochemical fluorescence polarization (FP) competition assay as previously described ([21], [22]).
The coding sequence of 5HB was designed as described previously and de novo synthesized by Genscript ([21]). The HR1 (aa 126 to 182) and HR2 (aa 476 to 524) coding sequences from wild-type RSV A2 strain F ([36]) were codon optimized for overexpression in Escherichia coli and cloned at NdeI/BamHI restriction sites of pET-15b to generate the expression plasmid for 5HB. The 5HB expression construct was transformed into Escherichia coli BL21(DE3). Cells were grown at 37°C to an optical density at 600 nm of 0.8 followed by induction with isopropyl-1-thio-β-D-galactopyranoside at a final concentration of 0.5 mM for 12 to 15 h. Cells were harvested by centrifugation, washed twice with PBS, and resuspended in 20 ml of PBS (pH 7.4), 500 mM NaCl, and 1% Triton X-100 supplemented with complete protease inhibitor. Cell suspensions were disrupted by sonication. Cell debris was removed through ultracentrifugation at 18,000 × g for 1 h at 4°C, and clarified cell lysate was mixed with 1 ml of nickel-nitrilotriacetic acid (Ni-NTA) agarose beads (Qiagen) preequilibrated with 20 ml of lysis buffer. The suspension was agitated for 1 h at 4°C and loaded onto a 5-ml polypropylene column (Qiagen). The column was washed twice with 8 ml of PBS (pH 7.4), 500 mM NaCl, 1% Triton X-100, and 100 mM imidazole. Proteins were eluted with 5 × 500 μl of a buffer containing PBS (pH 7.4), 300 mM imidazole, and 500 mM NaCl. The imidazole was removed by dialysis, and protein purity was assessed by SDS-polyacrylamide gel electrophoresis followed by Coomassie blue staining. Protein concentration was determined with the Qubit 2.0 Fluorometer (Life Technologies).
The T108 ([12]) peptide probe was synthesized by standard SPPS procedures using HCTU as a coupling reagent as described above. A 10-μl volume of recombinant 5HB protein in FP buffer (20 mM PBS [pH 7.4], 500 mM NaCl, 0.01% [vol/vol] Tween 20, and 0.05 mg/ml bovine gamma globulin) was preincubated for 10 min at room temperature with 10 μl of the appropriate concentration of the inhibitor, after which 10 μl of fluorescein isothiocyanate (FITC)-T106 was added and further incubated for 30 min at room temperature. The final concentrations of protein and probe were 50 nM and 2 nM, respectively. The fluorescence polarization assay was performed in 384-well plates using a Spectramax Paradigm (Molecular Devices), using excitation and emission wavelengths of 485 nm and 535 nm, respectively. The acquisition time was 700 ms, and the read height was 1 mm. All experiments were performed in duplicate. […] In order to ensure robust fitting for some fits, r0 was kept constant at the value measured for the free tracer in buffer.

circular dichroism = conditions: 10 mM phosphate; pH 7.5; 25 °C; 50 uM
[2] = tested on: rHRSV-mCherry in HEp-2 cells; assay: rHRSV-mCherry inhibition assay; type: cell-based, human respiratory syncytial virus; conditions: Table 3 (Ala scan); HEp-2 cells, rHRSV-mCherry MOI 0.2, 2-fold serial dilutions (11 dilutions), duplicate; ± SD of fit
Method: To measure the inhibitory activity of the peptide, the mCherry red fluorescence was quantified 48 h postinfection (p.i.).
Viral replication was quantified by measuring the mCherry fluorescence at 48 h p.i. and normalized based on the fluorescence of infected and untreated cells. (B) Cytotoxicity assay. HEp-2 cells were incubated in the presence of serial dilutions of peptides, and cell survival was quantified using the CellTiter-Glo Luminescent cell viability assay 24 h after the addition of the peptides. The signal was normalized based on the luminescence obtained for untreated cells. Error bars are standard deviations from duplicates.
HEp-2 cells were seeded at 5 × 10^4 cells per well in a 96-well plate the day before the infection. Peptides were 2-fold serially diluted in dimethyl sulfoxide (DMSO) (11 dilutions) and then further diluted in EMEM without phenol red and preincubated for 15 to 20 min with rHRSV-mCherry ([24]) at a final dilution with an MOI of 0.2 ([24]). The cells were incubated with the virus-peptide mixtures for a period of 1.5 to 2 h. The medium was then replaced by EMEM without phenol red containing 2% fetal bovine serum and the same concentration of peptide as the one that was used during the infection step. Plates were incubated 48 h at 37°C, and the mCherry fluorescence was measured using a spectrofluorometer (Tecan infinite M200PRO) with excitation and emission wavelengths of 580 and 620 nm, respectively. Relative fluorescence was normalized by the fluorescence of nontreated infected cells. Noninfected HEp-2 cells were used as standards for fluorescence background levels. Each experiment was performed in duplicate and repeated at least twice. The resulting inhibition curves were fitted in Igor Pro as described above.

For `CC[C@H](C)[C@H](NC(=O)[C@H](CCCCN)NC(=O)[C@H](CCC(=O)O)NC(=O)[C@H](CC(N)=O)NC(=O)[C@@H](NC(=O)[C@H](CCC(N)=O)NC(=O)[C@H](CO)NC(=O)[C@@H](NC(=O)[C@H](CO)NC(=O)[C@H](C)NC(=O)[C@H](CC(=O)O)NC(=O)[C@H](Cc1ccccc1)NC(=O)[C@H](CCC(=O)O)NC(=O)[C@H](CC(=O)O)NC(=O)[C@H](CO)NC(=O)[C@@H]1CCCN1C(=O)[C@H](Cc1ccccc1)NC(=O)[C@H](CCC(=O)O)NC(C)=O)[C@@H](C)CC)C(C)C)C(=O)N[C@@H](CC(N)=O)C(N)=O` [Peptide 1] (Ac-EFPSDEFDASISQVNEKIN-NH2), the Kd [1] was 2.2 ± 0.5 µM.
Work on `CC[C@H](C)[C@H](NC(=O)[C@H](CO)NC(=O)[C@H](C)NC(=O)[C@H](CC(=O)O)NC(=O)[C@H](Cc1ccccc1)NC(=O)[C@H](CCC(=O)O)NC(=O)[C@H](CC(=O)O)NC(=O)[C@H](CO)NC(=O)[C@@H]1CCCN1C(=O)[C@H](Cc1ccccc1)NC(=O)[C@H](CCC(=O)O)NC(C)=O)C(=O)N[C@]1(C)CCCCCCC=CCCC[C@@](C)(C(N)=O)NC(=O)[C@H]([C@@H](C)CC)NC(=O)[C@H](CCCCN)NC(=O)[C@H](CCC(=O)O)NC(=O)[C@H](CC(N)=O)NC(=O)[C@H](C(C)C)NC(=O)[C@H](CCC(N)=O)NC1=O` [Peptide 1c] (Ac-EFPSDEFDASI[R8]QVNEKI[S5]-NH2; staple 12-19) yielded a helicity (circular dichroism) of 24.5% and a Kd [1] of 221 ± 33 µM.
Compound `CC[C@H](C)[C@H](NC(=O)[C@H](CCCCN)NC(=O)[C@H](CCC(=O)O)NC(=O)[C@H](CC(N)=O)NC(=O)[C@@H](NC(=O)[C@H](CCC(N)=O)NC(=O)[C@H](CO)NC(=O)[C@@H](NC(=O)[C@H](CO)NC(=O)[C@]1(C)CCCC=CCCC[C@](C)(NC(=O)[C@H](CO)NC(=O)[C@@H]2CCCN2C(=O)[C@H](Cc2ccccc2)NC(=O)[C@H](CCC(=O)O)NC(C)=O)C(=O)N[C@@H](CCC(=O)O)C(=O)N[C@@H](Cc2ccccc2)C(=O)N[C@@H](CC(=O)O)C(=O)N1)[C@@H](C)CC)C(C)C)C(=O)N[C@@H](CC(N)=O)C(N)=O` [Peptide 1e] (Ac-EFPS[S5]EFD[S5]SISQVNEKIN-NH2; staple 5-9) has a helicity (circular dichroism) of 35.5% and a Kd [1] of 15 ± 3 µM.
Work on `CC[C@H](C)[C@H](NC(=O)[C@H](CCCCN)NC(=O)[C@]1(C)CCCC=CCCC[C@](C)(NC(=O)[C@@H](NC(=O)[C@H](CO)NC(=O)[C@H](C)NC(=O)[C@H](CC(=O)O)NC(=O)[C@H](Cc2ccccc2)NC(=O)[C@H](CCC(=O)O)NC(=O)[C@H](CC(=O)O)NC(=O)[C@H](CO)NC(=O)[C@@H]2CCCN2C(=O)[C@H](Cc2ccccc2)NC(=O)[C@H](CCC(=O)O)NC(C)=O)[C@@H](C)CC)C(=O)N[C@@H](CCC(N)=O)C(=O)N[C@@H](C(C)C)C(=O)N[C@@H](CC(N)=O)C(=O)N1)C(=O)N[C@@H](CC(N)=O)C(N)=O` [Peptide 1g] (Ac-EFPSDEFDASI[S5]QVN[S5]KIN-NH2; staple 12-16) yielded a helicity (circular dichroism) of 46.8% and a Kd [1] of 191 ± 19 µM.
For `CC[C@H](C)[C@H](NC(=O)[C@H](CCCCN)NC(=O)[C@H](CCC(=O)O)NC(C)=O)C(=O)N[C@@]1(C)CCCC=CCCC[C@@](C)(C(=O)N[C@@H](Cc2ccccc2)C(=O)N[C@H](C(=O)N[C@@]2(C)CCCC=CCCC[C@@](C)(C(=O)N[C@@H](CC(C)C)C(=O)N[C@@H](CC(C)C)C(=O)N[C@@H](Cc3c[nH]cn3)C(=O)N[C@@H](C)C(=O)N[C@H](C(N)=O)C(C)C)NC(=O)[C@H](CC(=O)O)NC(=O)[C@H](CO)NC(=O)[C@H](CCCCN)NC2=O)[C@@H](C)CC)NC(=O)[C@H](CC(C)C)NC(=O)[C@H](CO)NC(=O)[C@H](CCC(N)=O)NC1=O` [Peptide N515A] (Ac-EKI[S5]QSL[S5]FI[S5]KSD[S5]LLHAV-NH2; staple 4-8, 11-15), the helicity (circular dichroism) was 59% and the EC50 [2] was 2710 ± 2930 nM.
Work on `CC[C@H](C)[C@H](NC(=O)[C@H](CCCCN)NC(=O)[C@H](CCC(=O)O)NC(C)=O)C(=O)N[C@@]1(C)CCCC=CCCC[C@@](C)(C(=O)N[C@@H](Cc2ccccc2)C(=O)N[C@H](C(=O)N[C@@]2(C)CCCC=CCCC[C@@](C)(C(=O)N[C@@H](CC(C)C)C(=O)N[C@@H](CC(C)C)C(=O)N[C@@H](Cc3c[nH]cn3)C(=O)N[C@@H](CC(N)=O)C(=O)N[C@H](C(N)=O)C(C)C)NC(=O)[C@H](CC(=O)O)NC(=O)[C@H](CO)NC(=O)[C@H](CCCCN)NC2=O)[C@@H](C)CC)NC(=O)[C@H](CC(C)C)NC(=O)[C@H](CO)NC(=O)[C@H](C)NC1=O` [Peptide Q501A] (Ac-EKI[S5]ASL[S5]FI[S5]KSD[S5]LLHNV-NH2; staple 4-8, 11-15) yielded a helicity (circular dichroism) of 12% and an EC50 [2] of 280 ± 430 nM.
For `CC[C@H](C)[C@H](NC(=O)[C@H](CCCCN)NC(=O)[C@H](CCC(=O)O)NC(C)=O)C(=O)N[C@@]1(C)CCCC=CCCC[C@@](C)(C(=O)N[C@@H](Cc2ccccc2)C(=O)N[C@H](C(=O)N[C@@]2(C)CCCC=CCCC[C@@](C)(C(=O)N[C@@H](CC(C)C)C(=O)N[C@@H](CC(C)C)C(=O)N[C@@H](Cc3c[nH]cn3)C(=O)N[C@@H](CC(N)=O)C(=O)N[C@H](C(N)=O)C(C)C)NC(=O)[C@H](CC(=O)O)NC(=O)[C@H](CO)NC(=O)[C@H](CCCCN)NC2=O)[C@@H](C)CC)NC(=O)[C@H](CC(C)C)NC(=O)[C@H](C)NC(=O)[C@H](CCC(N)=O)NC1=O` [Peptide S502A] (Ac-EKI[S5]QAL[S5]FI[S5]KSD[S5]LLHNV-NH2; staple 4-8, 11-15), the helicity (circular dichroism) was 15% and the EC50 [2] was 660 ± 260 nM.
`CC[C@H](C)[C@H](NC(=O)[C@H](CCCCN)NC(=O)[C@H](CCC(=O)O)NC(C)=O)C(=O)N[C@@]1(C)CCCC=CCCC[C@@](C)(C(=O)N[C@@H](Cc2ccccc2)C(=O)N[C@H](C(=O)N[C@@]2(C)CCCC=CCCC[C@@](C)(C(=O)N[C@@H](CC(C)C)C(=O)N[C@@H](CC(C)C)C(=O)N[C@@H](Cc3c[nH]cn3)C(=O)N[C@@H](CC(N)=O)C(=O)N[C@@H](C)C(N)=O)NC(=O)[C@H](CC(=O)O)NC(=O)[C@H](CO)NC(=O)[C@H](CCCCN)NC2=O)[C@@H](C)CC)NC(=O)[C@H](CC(C)C)NC(=O)[C@H](CO)NC(=O)[C@H](CCC(N)=O)NC1=O` [Peptide V516A] (Ac-EKI[S5]QSL[S5]FI[S5]KSD[S5]LLHNA-NH2; staple 4-8, 11-15) gave a helicity (circular dichroism) of 49% and an EC50 [2] of 600 ± 30 nM.
